Broadly, the IC50 is the concentration needed to halve the response being measured.

Structures are written as SMILES. Where only a bound is given, the exact number is not on record here.

One assay has as its target T1, Gag-Pol polyprotein [588-1027]/[588-1147] (Human immunodeficiency virus 1, UniProt P04585).
T1 construct: 588-1027; 588-1147
In words: HIV-1 RT Assay.
Conditions: not given
Regarding `COC(=O)c1cc(C(=CCCCC(=O)N2CCCCC2)c2cc(Cl)c(OC)c(C(=O)OC)c2)cc(Cl)c1OC` [6,6-Bis(3-chloro-4-methoxy-5-methoxycarbonylphenyl)-1-piperidylhex-5-en-1-one], the IC50 is over 100 µM. In turn, `COC(=O)c1cc(C(=CCCCC(OC)OC)c2cc(Cl)c(OC)c(C(=O)OC)c2)cc(Cl)c1OC` [Alkenyldiarylmethane (ADAM) 38a] had an IC50 of over 100 µM. The compound `COC(=O)c1cc(C(=CCCNC(C)=O)c2cc(Cl)c(OC)c(C(=O)OC)c2)cc(Cl)c1OC` [Methyl 5-{4-(Acetylamino)-1-[3-chloro-4-methoxy-5-(methoxycarbonyl)phenyl]but-1-enyl}-3-chloro-2-methoxybenzoate] displayed an IC50 of over 100 µM. In turn, `COC(=O)c1cc(C(=CCCCC(=O)OCC[Si](C)(C)C)c2cc(C)c(OC)c(C(=O)OC)c2)cc(C)c1OC` [methyl 2-methoxy-5-{1-[4-methoxy-3-(methoxycarbonyl)-5-methylphenyl]-6-oxo-6-[2-(trimethylsilyl)ethoxy]hex-1-en-1-yl}-3-methylbenzoate] registered an IC50 of over 100 µM. `CCNC(=O)NCCC=C(c1cc(Cl)c(OC)c(C(=O)OC)c1)c1cc(Cl)c(OC)c(C(=O)OC)c1` [methyl 3-chloro-5-{1-[3-chloro-4-methoxy-5-(methoxycarbonyl)phenyl]-4-[(ethylcarbamoyl)amino]but-1-en-1-yl}-2-methoxybenzoate]: the IC50 is over 100 µM. In turn, `CNC(=S)NCCC=C(c1cc(Cl)c(OC)c(C(=O)OC)c1)c1cc(Cl)c(OC)c(C(=O)OC)c1` [methyl 3-chloro-5-{1-[3-chloro-4-methoxy-5-(methoxycarbonyl)phenyl]-4-[(methylcarbamothioyl)amino]but-1-en-1-yl}-2-methoxybenzoate] had an IC50 of over 100 µM.

The same assay, now with this note: pH 7.9.
Turning to `COC(=O)c1cc(C(=CCCCc2ccccc2)c2cc(Br)c(OC)c(C(=O)OC)c2)cc(Br)c1OC` [1,1-Bis[3-bromo-4-methoxy-5-(methoxycarbonyl)phenyl]-5-phenyl-1-pentene], the IC50 is over 100 µM.

The compound `COC(=O)c1cc(C(=CCCCc2ccccc2)c2cc(Cl)c(OC)c(C(=O)OC)c2)cc(Cl)c1OC` [1,1-Bis[3-chloro-4-methoxy-5-(methoxycarbonyl)phenyl]-5-phenyl-1-pentene] had an IC50 of over 100 µM. Compound `COC(=O)CCCC=C(c1cc(C(=O)OC)c(OC)c(C(F)(F)F)c1)c1cc(C(=O)OC)c(OC)c(C(F)(F)F)c1` [Alkenyldiarylmethane (ADAM) 18a] showed an IC50 of over 200 µM.

`COC(=O)c1cc(C(=CCCCC(=O)OC(C)C)c2cc(Cl)c(OC)c(C(=O)OC)c2)cc(Cl)c1OC` [Alkenyldiarylmethane (ADAM) 25a] gave an IC50 of over 100 µM.

For the origin of these results see BindingDB's records for doi:10.1021/jm010212m (Purdue University, 2001).
